Laboratory results as given in patent US20120309699A1, “COMPOUNDS HAVING ANTI-INFLAMMATORY ACTIVITY” (Consejo Superior de Investigaciones Cientificas (CSIC), priority 2009, published 2012).
Entries after “also recorded” stand apart in the source; their conditions may differ.

How the values were obtained:
bifidobacteria = assay: Microbiota counts in feces: bifidobacteria; format: in vivo, mice; conditions: HED 10 mg
Protocol: (§1) A model for intestinal inflammation based on the administration of DSS (sodium dextran sulfate) to C57BL/6 mice was used. At the present time there is no consensus about which overall is the best model for experimental colitis. The DSS model has been widely used because it has clinical, morphological and analytical characteristics which up to a point are similar to those specific to patients with ulcerative colitis or Crohn's disease.
(§2) The in vivo inflammation test was carried out using duplicates separated by a number of months. In each test each group of animals (n=8) was fed a standard diet supplemented with 2.3 mg/day/kg (animal weight) of each of the compounds, depending upon the group. This dose assumes the ingestion of 0.05 mg/day (50 μg/day) per mouse (having a mean weight of 22 grams). This dose extrapolated to a human being is equivalent to 10 mg in an adult weighing 70 kg; using the formula HED (human equivalent dose)=animal dose in mg/kg×(animal weight kg/human weight in kg)^0.33.
(§3) In each test the mice were fed for 3 weeks during which 1% DSS was included in their drink. The DSS was maintained for 8 days (and the same food as from the start). Then the DSS was withdrawn and the animals were allowed to recover for another 6 days (again with the same food).
(§4) • Monitoring of weight, food and drink ingestion. The mice in all groups were individually monitored, with weight, quantity of food ingested and water drunk each day being monitored throughout the experimental test. • Blood and water in feces. The water content of feces, as an indication of diarrhea, was evaluated using the difference in weight following evaporation in a stove. Blood was measured using reactive strips based on the guaiacol-peroxidase reaction (HealthCare Diagnosis Inc.). […] The reaction was measured using a scale from 0 (negative result) to 4 (most intense color change). • Length of colon. After sacrifice the colon was obtained from each mouse, extended and measured. […] This was evaluated by spectrophotometry at 460 nm using O-dianisidine reagent and hydrogen peroxide. The change in absorbance at 460 nm was monitored over 10 minutes in a V-630 spectrophotometer (Jasco, Tokyo, Japan). MPO activity was expressed as mU of activity/mg of fresh tissue, comparing the increase in absorbance with a standard straight line obtained using leukocyte myeloperoxidase (Sigma). • Prostaglandins in colonic mucosa. Levels of PGE2 were measured in colonic mucosa homogenates using an immunoenzyme method using a Cayman Chem. kit (USA). • “Antibody array”. […] The signal was detected by chemoluminescence. […] Signal intensities (densitometry) were analyzed using ScanAlyze software. […] The changes in cytokine levels were expressed as mean±SD in arbitrary density units. […]

haptoglobin = assay: Systemic inflammation marker haptoglobin (DSS model); format: in vivo, mice; conditions: vs DSS group; HED 10 mg
Protocol: as §1, §2, §3, §4

C57BL/6 mice = assay: DSS (sodium dextran sulfate) model for intestinal inflammation: colon length, weight, DAI, appearance, colonic architecture; format: in vivo; conditions: after 1% DSS for 8 days; HED 10 mg
Protocol: as §1, §2, §3
Groups included in the investigation: control (standard food), control-DSS, DSS-resveratrol (RES), DSS-piceid (PIC), DSS-resveratrol-diglucoside (DIGLUC), DSS-piceid-butyrate (BUT), DSS-piceid-octanoate (OCT).
• Monitoring of weight, food and drink ingestion. The mice in all groups were individually monitored, with weight, quantity of food ingested and water drunk each day being monitored throughout the experimental test. • Blood and water in feces. The water content of feces, as an indication of diarrhea, was evaluated using the difference in weight following evaporation in a stove. Blood was measured using reactive strips based on the guaiacol-peroxidase reaction (HealthCare Diagnosis Inc.). The samples were diluted 1:50 in saline solution and applied to the reactive strips. After 60 sec the color was compared with the template provided by the manufacturer. The reaction was measured using a scale from 0 (negative result) to 4 (most intense color change). • Length of colon. After sacrifice the colon was obtained from each mouse, extended and measured. Samples of the colonic mucosa for various tests mentioned below were obtained by scraping. • Myeloperoxidase activity in colonic mucosa. This was evaluated by spectrophotometry at 460 nm using O-dianisidine reagent and hydrogen peroxide. The change in absorbance at 460 nm was monitored over 10 minutes in a V-630 spectrophotometer (Jasco, Tokyo, Japan). MPO activity was expressed as mU of activity/mg of fresh tissue, comparing the increase in absorbance with a standard straight line obtained using leukocyte myeloperoxidase (Sigma). • Prostaglandins in colonic mucosa. Levels of PGE2 were measured in colonic mucosa homogenates using an immunoenzyme method using a Cayman Chem. kit (USA). • “Antibody array”. The “antibody array” kit from RayBiotech (“RayBio Mouse Inflammation Antibody Array 1”) was used to determine cytokines in colonic tissue samples. The “RayBio Mouse inflammation antibody arrays” are a fast and accurate system for determining the expression profile of multiple cytokines (in this case 40) in a very sensitive way. The sensitivity is 100 times greater than that of the ELISA method. The measurement was made in duplicate following the manufacturer's instructions. Membranes were blocked with blocking buffer and then incubated with 300 μg of protein for 2 hours. Finally the membranes were incubated with a cocktail of antibodies conjugated with biotin and then radish peroxidase marked with streptavidin. The signal was detected by chemoluminescence. Images were captured using a CCD camera fitted to a Biorad Chemidoc XRS imaging station. Signal intensities (densitometry) were analyzed using ScanAlyze software. […]

fibrinogen = assay: Systemic inflammation marker fibrinogen (DSS model); format: in vivo, mice; conditions: vs DSS group; HED 10 mg
Protocol: as §1, §2, §3, §4

COX-1 = COX-1 (Homo sapiens, UniProt P23219); conditions: cited from earlier work
COX-1, sequence (P23219 24-599): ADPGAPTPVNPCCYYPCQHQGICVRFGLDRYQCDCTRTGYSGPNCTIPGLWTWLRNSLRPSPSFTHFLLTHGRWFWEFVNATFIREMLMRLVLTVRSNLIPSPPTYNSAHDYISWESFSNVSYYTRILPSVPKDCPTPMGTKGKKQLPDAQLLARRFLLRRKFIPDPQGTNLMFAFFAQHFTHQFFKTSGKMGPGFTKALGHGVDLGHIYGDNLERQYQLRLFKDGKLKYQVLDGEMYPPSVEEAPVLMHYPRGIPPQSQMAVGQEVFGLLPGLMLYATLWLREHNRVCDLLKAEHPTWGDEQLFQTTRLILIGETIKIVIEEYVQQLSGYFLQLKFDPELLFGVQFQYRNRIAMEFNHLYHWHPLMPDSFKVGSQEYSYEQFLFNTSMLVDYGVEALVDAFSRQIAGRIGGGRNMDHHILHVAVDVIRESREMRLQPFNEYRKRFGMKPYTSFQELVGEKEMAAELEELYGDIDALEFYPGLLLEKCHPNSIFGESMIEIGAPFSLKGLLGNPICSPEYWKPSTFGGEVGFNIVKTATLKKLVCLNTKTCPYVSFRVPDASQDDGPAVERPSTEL

E. coli = assay: Microbiota counts in feces: E. coli; format: in vivo, mice; conditions: after administration of DSS; HED 10 mg
Protocol: as §1
as §2, with “kg)^0.33. […]” for “kg)^0.33.”
(§5) • Monitoring of weight, food and drink ingestion. The mice in all groups were individually monitored, with weight, quantity of food ingested and water drunk each day being monitored throughout the experimental test. • Blood and water in feces. The water content of feces, as an indication of diarrhea, was evaluated using the difference in weight following evaporation in a stove. Blood was measured using reactive strips based on the guaiacol-peroxidase reaction (HealthCare Diagnosis Inc.). […] The reaction was measured using a scale from 0 (negative result) to 4 (most intense color change). • Length of colon. After sacrifice the colon was obtained from each mouse, extended and measured. […] This was evaluated by spectrophotometry at 460 nm using O-dianisidine reagent and hydrogen peroxide. The change in absorbance at 460 nm was monitored over 10 minutes in a V-630 spectrophotometer (Jasco, Tokyo, Japan). […] Levels of PGE2 were measured in colonic mucosa homogenates using an immunoenzyme method using a Cayman Chem. kit (USA). • “Antibody array”. […] The signal was detected by chemoluminescence. […]

enterobacteria = assay: Microbiota counts in feces: enterobacteria; format: in vivo, mice; conditions: after administration of DSS; HED 10 mg
Protocol: as §1
as §2, with “kg)^0.33. […]” for “kg)^0.33.”
as §5

[1] = system: pathogenic bacteria (E. coli O157, Salmonella and Listeria monocytogenes Scott A); assay: Adhesion of pathogenic bacteria to HT-29 cell cultures; format: cell-based, human; conditions: HT-29, 25 μM/well, vs positive control C+
Protocol: (§6) We used two cell models for colon cancer to evaluate the anti-adhesion capacity of compounds derived from resveratrol against pathogenic bacteria in food: Caco-2 (a model frequently used to measure the adhesion of microorganisms) and HT-29 (a model frequently used to measure immune response to infections by enteropathogens). Caco-2 and HT-29 cells were grown in EMEM and DMEM respectively, for which 24 well plates were used at 37° C., 5% CO2, 95% air until a single layer of confluent epithelium formed (cell concentration per well 2×10^5 and 6×10^5 respectively). Pathogenic bacteria (E. coli O157, Salmonella and Listeria monocytogenes Scott A) were placed in contact with the various compounds derived from resveratrol for 1 hour and subsequently the bacteria together with the different compounds in a concentration of 25 μM/well were inoculated on the cell cultures, incubating the plates for 2 hours at 37° C., 5% CO2, 95% air. The plates were then washed 3 times with 1 ml of sterile PBS and 1 ml of distilled water with 20% of glycerol was added, and they were frozen at −70° C. to lyse the epithelial cells. […] Concentrations of the various derivatives tested were detected in the digestive tracts of experimental animals and therefore the test lay within the range of physiologically achievable concentrations.

COX-2 = conditions: see ES2266271; cited from earlier work
[2] = Time of arrival and concentration of resveratrol in the colon of healthy mice; conditions: gastric probang, 84 mg/kg resveratrol
[3] = system: pathogenic bacteria (E. coli O157, Salmonella and Listeria monocytogenes Scott A); assay: Adhesion of pathogenic bacteria to Caco-2 cell cultures; format: cell-based, human; conditions: Caco-2, 25 μM/well, vs positive control C+
Protocol: as §6

SMILES | Bifidobacteria count in feces (bifidobacteria; 3 weeks of supplemented diet, prior to DSS) | Blood haptoglobin levels (haptoglobin) | General appearance of the mice (C57BL/6 mice) | Blood fibrinogen levels (fibrinogen) | Enzyme activity of COX-1 (COX-1) | Bifidobacteria count in feces (bifidobacteria; after administration of DSS) | E. coli count in feces (E. coli) | Enterobacteria count in feces (enterobacteria) | Adhesion of pathogenic bacteria to intestinal epithelium [1] | Transcription of COX-2 (COX-2) | Time of maximum resveratrol in the colon [2] | Adhesion of pathogenic bacteria to the intestinal epithelium [3]
OC[C@H]1O[C@@H](Oc2cc(/C=C/c3ccc(O)cc3)cc(O[C@@H]3O[C@H](CO)[C@@H](O)[C@H](O)[C@H]3O)c2)[C@H](O)[C@@H](O)[C@@H]1O [DIGLUC, trans-resveratrol-3,5-di-O-β-D-glucopyranoside] | highest count | clear tendency to improvement | OCT (D)≈BUT (C)>>RES≈DIGLUC≈PIC (B)>>control-DSS (A) | most notable differences |  |  |  |  |  |  |  | 
OC[C@H]1O[C@@H](Oc2cc(O)cc(/C=C/c3ccc(O)cc3)c2)[C@H](O)[C@@H](O)[C@@H]1O [PIC, resveratrol-3-O-glucoside, reference compound] |  |  | OCT (D)≈BUT (C)>>RES≈DIGLUC≈PIC (B)>>control-DSS (A) |  |  |  |  |  |  |  |  | 
Oc1ccc(/C=C/c2cc(O)cc(O)c2)cc1 [RES, trans-resveratrol, reference compound] |  | clear tendency to improvement | OCT (D)≈BUT (C)>>RES≈DIGLUC≈PIC (B)>>control-DSS (A); also recorded: better appearance than the control-DSS | clear tendency to improvement | inhibits the enzyme activity of COX-1 | slightly higher counts | clear reduction | clear reduction | reduced the adhesion | inhibits the transcription of COX-2 | around 5 hours | reduced the adhesion
